Test results from ChEMBL document CHEMBL1127552, “Approaches toward selective inhibition of nitric oxide synthase” (J Med Chem, 1994).
pIC50: −log10 of the molar value.

Key:
[1] = molecular target: T1, Nitric oxide synthase, inducible (Mus musculus, UniProt P29477); experiment: Compound was tested for its inhibitory activity against macrophage NO2- synthesis
T1 sequence (P29477 whole entry): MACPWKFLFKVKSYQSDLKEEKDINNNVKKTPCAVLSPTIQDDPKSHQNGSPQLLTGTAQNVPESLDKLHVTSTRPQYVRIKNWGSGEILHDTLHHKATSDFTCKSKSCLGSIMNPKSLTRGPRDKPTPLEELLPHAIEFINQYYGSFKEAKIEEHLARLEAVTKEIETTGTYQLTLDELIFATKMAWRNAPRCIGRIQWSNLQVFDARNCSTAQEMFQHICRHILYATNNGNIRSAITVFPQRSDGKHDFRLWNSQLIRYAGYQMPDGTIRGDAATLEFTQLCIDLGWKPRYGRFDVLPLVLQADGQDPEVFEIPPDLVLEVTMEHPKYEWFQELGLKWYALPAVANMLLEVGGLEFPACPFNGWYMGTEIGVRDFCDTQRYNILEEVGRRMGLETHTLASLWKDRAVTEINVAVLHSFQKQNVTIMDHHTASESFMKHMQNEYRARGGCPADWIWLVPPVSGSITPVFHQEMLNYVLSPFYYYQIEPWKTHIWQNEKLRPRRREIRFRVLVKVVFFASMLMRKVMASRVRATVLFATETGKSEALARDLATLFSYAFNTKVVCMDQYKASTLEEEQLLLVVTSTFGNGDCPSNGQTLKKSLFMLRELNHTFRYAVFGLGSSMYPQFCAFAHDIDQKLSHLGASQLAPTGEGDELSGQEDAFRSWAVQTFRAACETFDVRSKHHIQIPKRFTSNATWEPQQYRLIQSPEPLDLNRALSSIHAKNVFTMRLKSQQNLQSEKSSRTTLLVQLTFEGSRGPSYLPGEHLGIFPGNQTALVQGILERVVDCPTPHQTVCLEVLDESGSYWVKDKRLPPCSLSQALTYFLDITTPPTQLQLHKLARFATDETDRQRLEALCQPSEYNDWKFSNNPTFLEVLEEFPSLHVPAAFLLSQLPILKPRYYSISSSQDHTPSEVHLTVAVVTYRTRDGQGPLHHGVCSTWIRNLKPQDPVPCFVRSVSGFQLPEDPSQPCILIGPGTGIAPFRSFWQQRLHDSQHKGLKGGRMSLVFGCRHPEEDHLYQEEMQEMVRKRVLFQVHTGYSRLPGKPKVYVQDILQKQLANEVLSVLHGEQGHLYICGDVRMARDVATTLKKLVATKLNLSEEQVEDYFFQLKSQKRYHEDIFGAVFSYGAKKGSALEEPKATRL

Nitric oxide synthase 3 = molecular target: T2, Nitric oxide synthase 3 (Bos taurus, UniProt P29473); experiment: Compound was tested for its inhibitory activity against endothelial NO2- synthesis
T2 sequence (P29473 whole entry): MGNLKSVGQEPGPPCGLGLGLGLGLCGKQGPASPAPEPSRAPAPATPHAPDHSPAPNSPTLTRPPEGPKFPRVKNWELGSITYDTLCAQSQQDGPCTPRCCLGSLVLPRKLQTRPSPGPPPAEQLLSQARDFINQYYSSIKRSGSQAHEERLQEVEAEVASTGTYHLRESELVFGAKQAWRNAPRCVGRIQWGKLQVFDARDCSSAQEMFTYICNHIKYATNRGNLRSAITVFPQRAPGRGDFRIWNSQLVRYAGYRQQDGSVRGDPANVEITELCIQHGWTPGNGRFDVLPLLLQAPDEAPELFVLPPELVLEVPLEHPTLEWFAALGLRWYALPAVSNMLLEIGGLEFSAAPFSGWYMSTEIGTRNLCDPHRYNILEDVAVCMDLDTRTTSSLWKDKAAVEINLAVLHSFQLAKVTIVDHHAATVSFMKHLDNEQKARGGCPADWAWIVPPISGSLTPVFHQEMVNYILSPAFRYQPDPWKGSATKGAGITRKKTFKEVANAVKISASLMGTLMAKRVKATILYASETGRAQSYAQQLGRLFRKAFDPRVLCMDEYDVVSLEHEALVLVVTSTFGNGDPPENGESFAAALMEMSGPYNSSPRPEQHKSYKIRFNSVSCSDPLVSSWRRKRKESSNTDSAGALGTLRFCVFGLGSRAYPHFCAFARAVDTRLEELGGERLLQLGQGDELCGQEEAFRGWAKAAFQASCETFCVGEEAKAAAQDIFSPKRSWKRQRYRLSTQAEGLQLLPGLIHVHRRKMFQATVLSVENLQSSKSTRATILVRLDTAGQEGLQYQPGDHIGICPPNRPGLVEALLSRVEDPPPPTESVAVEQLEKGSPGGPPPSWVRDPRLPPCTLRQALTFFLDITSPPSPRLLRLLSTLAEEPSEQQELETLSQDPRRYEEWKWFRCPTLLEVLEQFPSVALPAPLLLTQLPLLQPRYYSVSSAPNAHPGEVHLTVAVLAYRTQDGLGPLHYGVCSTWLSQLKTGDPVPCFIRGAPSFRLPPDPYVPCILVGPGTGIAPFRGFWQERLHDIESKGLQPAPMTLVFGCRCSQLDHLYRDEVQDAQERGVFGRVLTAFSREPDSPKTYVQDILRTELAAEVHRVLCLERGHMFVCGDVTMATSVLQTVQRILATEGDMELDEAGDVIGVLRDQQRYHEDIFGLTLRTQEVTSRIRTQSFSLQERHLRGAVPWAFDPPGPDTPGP

pIC50 [1] | Structure (SMILES) | pIC50 (Nitric oxide synthase 3)
4.22 | CNC(N)NCCCC(N)C(=O)O (configuration not stated) | –
– | COC(=O)[C@@H](N)CCCNC(=N)N[N+](=O)[O-] [L-NAME] | 4.00
